Like-named read-outs stand apart in the source and are kept apart here.
Key:
Format in all cases: in vivo
Pyricularia = settings: rice
Pyricularia oryzae = settings: rice, protective, evaluation 4 days after inoculation
[1] = system: Erysiphe graminis f.sp. hordei; assay: Erysiphe test (barley)/protective; settings: protective, application rate 50 g/ha, evaluation 7 days after inoculation
Experimental: Erysiphe test (barley)/protective
Solvent: 50 parts by weight of dimethylformamide
Emulsifier: 1 part by weight of alkylaryl polyglycol ether
To produce a suitable preparation of active compound, 1 part by weight of active compound or a combination of active compound is mixed with the stated amounts of solvent and emulsifier, and the concentrate is diluted with water to the desired concentration, or a commercial formulation of active compound or active compound combination is diluted with water to the desired concentration.
To test for protective activity, young plants are sprayed with the preparation of active compound at the stated application rate.
1 day after the treatment, the plants are dusted with spores of Erysiphe graminis f.sp. hordei.
The plants are placed in a greenhouse at a temperature of about 20° C. and a relative atmospheric humidity of about 80% to promote the development of mildew pustules.
Evaluation is carried out 7 days after the inoculation. 0% means an efficacy which corresponds to that of the control, whereas an efficacy of 100% means that no infection is observed.

N#Cc1ccccc1NC(=O)c1snc(Cl)c1Cl [(I), 2′-cyano-3,4-dichloroisothiazole-5-carboxanilide] showed an Efficacy in % (Pyricularia; 10 g/10 acres, b: inoculation two weeks after treatment) of 12.6% and an Efficacy in % (Pyricularia; 20 g/10 acres, b: inoculation two weeks after treatment) of 75%.
For CC(NC(=O)C(C#N)C(C)(C)C)c1ccc(Cl)cc1Cl (stereo not shown) [(IX), diclocymet], the Efficacy in % (Pyricularia; 10 g/10 acres, a: inoculation one week after treatment) was 37.5%, the Efficacy in % (Pyricularia; 20 g/10 acres, a: inoculation one week after treatment) was 83.2% and the Efficacy in % (Pyricularia; 100 g/10 acres, b: inoculation two weeks after treatment) was 27.8%.
CC(C)(C)C(O)(CCc1ccc(Cl)cc1)Cn1cncn1 (stereo not shown) [(IV-b)] was tested, and the Efficacy in % (Pyricularia oryzae; application rate 100 g/ha) was 0%.
OC(Cc1ccccc1Cl)(Cn1nc[nH]c1=S)C1(Cl)CC1 (stereo not shown) [(IV-c), Prothioconazole] was tested, and the Efficacy in % (Pyricularia oryzae; application rate 100 g/ha) was 29%.
CCC1(C(=O)NC(C)c2ccc(Cl)cc2)C(C)C1(Cl)Cl (stereo not shown) [(II), N-[1-(4-chlorophenyl)ethyl]-2,2-dichloro-1-ethyl-3-methylcyclopropane-carboxamide] gave an Efficacy in % (Pyricularia oryzae; application rate 50 g/ha) of 29% and an Efficacy in % (Pyricularia; 100 g/10 acres, a: inoculation one week after treatment) of 0%.
O=C(Nc1ccccc1)N(Cc1ccc(Cl)cc1)C1CCCC1 [(V)] showed an Efficacy in % [1] of 0%.
